Source: patent US5122523A, “N-acylamino acid derivatives and their pharmaceutical compositions” (Banyu Pharmaceutical Co., Ltd., priority 1987, dated 1992)

These compounds were tested against T1, human plasma renin (Homo sapiens, UniProt P00797) (assay: Renin inhibiting activities (human plasma, angiotensin I by radioimmunoassay)). Settings: pH7.4, 37° C., one hour.
T1 construct: from tissue; host or cells: human plasma
T1 sequence (P00797 67-406): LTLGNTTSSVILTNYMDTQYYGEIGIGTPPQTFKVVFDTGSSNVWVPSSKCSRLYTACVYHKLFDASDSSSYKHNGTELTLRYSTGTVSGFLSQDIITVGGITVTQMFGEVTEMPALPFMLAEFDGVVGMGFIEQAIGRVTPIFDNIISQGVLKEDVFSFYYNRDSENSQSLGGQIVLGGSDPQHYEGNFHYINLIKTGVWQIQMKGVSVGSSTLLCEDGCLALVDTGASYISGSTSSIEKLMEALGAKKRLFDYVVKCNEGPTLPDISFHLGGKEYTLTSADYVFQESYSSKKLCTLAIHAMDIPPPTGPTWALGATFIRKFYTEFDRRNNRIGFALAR
Type: biochemical
Description: TEST EXAMPLE 1: Renin inhibiting activities
To 156 μl of a 0.2M sodium phosphate buffer solution (pH7.4), 40 μl of a solution mixture of 34 mM 8-hydroxyquinoline and 100 mM disodium ethylenediamine tetraacetate, 4 μl of dimethyl sulfoxide or a dimethyl sulfoxide solution of an inhibitor and 200 μl of human plasma were added and reacted at 37° C. for one hour. Then, pepstatin was added thereto to terminate the reaction, and the amount of the resulting angiotension I was measured by radio immunoassay whereby the inhibiting activity was determined.

How did the IC50 turn out when CCCC[C@H](NC(=O)[C@@H](CSc1ncccn1)Cc1cccc2ccccc12)C(=O)N[C@@H](CC(C)C)[C@@H](O)CC(CC)C(=O)NCC(C)C (mixture of isomers) [Example 6, (2RS,4S,5S)-5-{L-N-[(2S)-3-(pyrimidin-2-yl)thio-2-(1-naphthylmethyl)propionyl]norleucyl}amino-2-ethyl-4-hydroxy-7-methyloctanoic acid isobutylamide] was run?
The IC50 was 1.6 nM.

How did the IC50 turn out when CCCC[C@H](NC(=O)[C@H](Cc1cccc2ccccc12)C[S+]([O-])c1ncccn1)C(=O)N[C@@H](CC(C)C)[C@@H](O)CC(CC)C(=O)NCC(C)C (mixture of isomers) [Example 7, (2RS,4S,5S)-5-{L-N-[(2S)-3-(pyrimidin-2-yl)sulfinyl-2-(1-naphthylmethyl)propionyl]norleucyl}amino-2-ethyl-4-hydroxy-7-methyloctanoic acid isobutylamide] was run?
Its IC50 is 0.83 nM.

For CCCC[C@H](NC(=O)[C@H](Cc1cccc2cccnc12)CS(=O)(=O)CC)C(=O)N[C@@H](CC(C)C)[C@@H](O)CC(CC)C(=O)NCC(C)C (mixture of isomers) [Example 10, (2RS,4S,5S)-5-{L-N-[(2S)-3-ethylsulfonyl-2-(8-quinolylmethyl)propionyl]norleucyl}amino-2-ethyl-4-hydroxy-7-methyloctanoic acid isobutylamide], which IC50 is on record?
The IC50 was 2 nM.

For CCC(C[C@H](O)[C@H](CC(C)C)NC(=O)[C@H](Cc1c[nH]cn1)NC(=O)[C@H](Cc1cccc2ccccc12)CS(=O)(=O)CC)C(=O)NCC(C)C (mixture of isomers) [Example 15, (2RS,4S,5S)-5-{L-N^α -[(2S)-3-ethylsulfonyl-2-(1-naphthylmethyl)propionyl]histidyl}amino-2-ethyl-4-hydroxy-7-methyloctanoic acid isobutylamide], which IC50 is on record?
The IC50 was 0.5 nM.

CCCC[C@H](NC(=O)C(Cc1cccc2ccccc12)CS(=O)(=O)CC)C(=O)N[C@@H](CC(C)C)[C@@H](O)CC(CC)C(=O)NCC(C)C (single isomer, unassigned) [Example 1, (2RS,4S,5S)-5-{L-N-[(2R or S)-3-ethylsulfonyl-2-(1-naphthylmethyl)propionyl]norleucyl}amino-2-ethyl-4-hydroxy-7-methyloctanoic acid isobutylamide] was tested. Which IC50 did it give?
Its IC50 is 0.5 nM.

With CCCC[C@H](NC(=O)C(Cc1cccc2ccccc12)CS(=O)(=O)c1ncccn1)C(=O)N[C@@H](CC(C)C)[C@@H](O)CC(CC)C(=O)NCC(C)C (single isomer, unassigned) [Example 2, (2RS,4S,5S)-5-{L-N-[(2R or S)-3-(pyrimidin-2-yl)sulfonyl-2-(1-naphthylmethyl)propionyl]norleucyl}amino-2-ethyl-4-hydroxy-7-methyloctanoic acid isobutylamide] as the compound, how does the IC50 read?
The IC50 was 0.17 nM.

For CCCC[C@H](NC(=O)C(Cc1cccc2ccccc12)CS(=O)(=O)c1nnnn1C)C(=O)N[C@@H](CC(C)C)[C@@H](O)C[C@H](CC)C(=O)NCC(C)C (single isomer, unassigned) [Example 4, (2S,4S,5S)-5-{L-N-[(2R or S)-3-(1-methyltetrazol-5-yl)sulfonyl-2-(1-naphthylmethyl)propionyl]norleucyl}amino-2-ethyl-4-hydroxy-7-methyloctanoic acid isobutylamide], which IC50 is on record?
The IC50 was 0.96 nM.

CCCC[C@H](NC(=O)[C@@H](Cc1cccc2ccccc12)CS(=O)(=O)CC)C(=O)N[C@@H](CC(C)C)[C@@H](O)C[C@@H](CC)C(=O)NCCN1CCOCC1 (single isomer, unassigned) [Example 8, (2R or S,4S,5S)-5-{L-N-[(2R or S)-3-ethylsulfonyl-2-(1-naphthylmethyl)propionyl]norleucyl}amino-2-ethyl-4-hydroxy-7-methyloctanoic acid 2-morpholinoethylamide] was tested. Which IC50 did it give?
Its IC50 is 1.5 nM.

For CCCC[C@H](NC(=O)C(CCCSCC)Cc1cccc2ccccc12)C(=O)N[C@@H](CC(C)C)[C@@H](O)CC(CC)C(=O)NCC(C)C (single isomer, unassigned) [Example 12, (2RS,4S,5S)-5-{L-N-[(2R or S)-5-ethylthio-2-(1-naphthylmethyl)pentanoyl]norleucyl}amino-2-ethyl-4-hydroxy-7-methyloctanoic acid isobutylamide], which IC50 is on record?
The IC50 was 9.7 nM.

How did the IC50 turn out when CCCC[C@H](NC(=O)C(CCCS(=O)(=O)CC)Cc1cccc2ccccc12)C(=O)N[C@@H](CC(C)C)[C@@H](O)CC(CC)C(=O)NCC(C)C (single isomer, unassigned) [Example 13, (2RS,4S,5S)-5-{L-N-[(2R or S)-5-ethylsulfonyl-2-(1-naphthylmethyl)pentanoyl]norleucyl}amino-2-ethyl-4-hydroxy-7-methyloctanoic acid isobutylamide] was run?
The IC50 was 1.9 nM.

CCCC[C@H](NC(=O)[C@H](Cc1cccc2ccccc12)CS(=O)(=O)CC)C(=O)N[C@@H](CC1CCCCC1)C(O)C(O)CSC (single isomer, unassigned) [Example 21, (2RS,3R or S,4S)-4-{L-N-[(2S)-3-ethylsulfonyl-2-(1-naphthylmethyl)propionyl]norleucyl}amino-5-cyclohexyl-1-methylthio-2,3-pentanediol] was tested. Which IC50 did it give?
Its IC50 is 8.9 nM.

How did the IC50 turn out when CCCC[C@H](NC(=O)C(Cc1cccc2ccccc12)CS(=O)(=O)CCO)C(=O)N[C@@H](CC1CCCCC1)[C@@H](O)[C@@H](O)CN1CCOCC1 (single isomer, unassigned) [Example 36, (2S,3R,4S)-4-{L-N-[(2S or R)-3-(2-hydroxyethyl)sulfonyl-2-(1-naphthylmethyl)propionyl]norleucyl}amino-5-cyclohexyl-1-morpholino-2,3-pentanediol] was run?
The IC50 was 2.7 nM.

For CCCC[C@H](NC(=O)[C@H](Cc1cccc2ccccc12)C[S+]([O-])c1ncccn1)C(=O)N[C@@H](CC1CCCCC1)[C@@H](O)[C@@H](O)CN1CCOCC1 (single isomer, unassigned) [Example 42], which IC50 is on record?
The IC50 was 3.6 nM.

For CCCC[C@H](NC(=O)C(Cc1ccccc1)CS(=O)(=O)C1CCCC1)C(=O)N[C@@H](CC1CCCCC1)[C@@H](O)[C@@H](O)CN1CCOCC1 (single isomer, unassigned) [Example 51(B), (2S,3R,4S)-4-{L-N-[(2S or R)-3-cyclopentanesulfonyl-2-benzylpropionyl]norleucyl}amino-5-cyclohexyl-1-morpholino-2,3-pentanediol], which IC50 is on record?
The IC50 was 2 nM.

For CCCC[C@H](NC(=O)[C@@H](CSc1nncs1)Cc1cccc2ccccc12)C(=O)N[C@@H](CC(C)C)[C@@H](O)CC(CC)C(=O)NCC(C)C (stereo partly drawn) [Example 5, (2RS,4S,5S),-5-{L-N-[(2S)-3-(1,3,4-thiadiazol-2-yl)thio-2-(1-naphthylmethyl)propionyl]norleucyl}amino-2-ethyl-4-hydroxy-7-methyloctanoic acid isobutylamide], which IC50 is on record?
Its IC50 is 1.4 nM.

With CCC(C[C@H](O)[C@H](CC(C)C)NC(=O)[C@H](Cc1c[nH]cn1)NC(=O)[C@H](Cc1cccc2cccnc12)CS(=O)(=O)CC)C(=O)NCC(C)C (stereo partly drawn) [Example 11, (2RS,4S,5S)-5-{L-N^α -[2(S)-3-ethylsulfonyl-2-(8-quinolylmethyl)propionyl]histidyl}amino-2-ethyl-4-hydroxy-7-methyloctanoic acid isobutylamide] as the compound, how does the IC50 read?
Its IC50 is 3.1 nM.

With CCCC[C@H](NC(=O)[C@H](Cc1cccc2ccccc12)CS(=O)(=O)CC)C(=O)N[C@@H](CC(C)C)[C@@H](O)[C@@H](O)CN1CCOCC1 [Example 19, (2S,3R,4S)-4-{L-N-[(2S)-3-ethylsulfonyl-2-(1-naphthylmethyl)propionyl]norleucyl}amino-6-methyl-1-morpholino-2,3-heptanediol] as the compound, how does the IC50 read?
The IC50 was 8.3 nM.

How did the IC50 turn out when CCS(=O)(=O)C[C@@H](Cc1cccc2ccccc12)C(=O)N[C@@H](Cc1c[nH]cn1)C(=O)N[C@@H](CC1CCCCC1)[C@@H](O)[C@@H](O)CN1CCOCC1 [Example 31, (2S,3R,4S)-4-{L-N^α -[(2S)-3-ethylsulfonyl-2-(1-naphthylmethyl)propionyl]histidyl}amino-5-cyclohexyl-1-morpholino-2,3-pentanediol] was run?
Its IC50 is 4.2 nM.

CC(C)[S+]([O-])C[C@@H](Cc1cccc2ccccc12)C(=O)N[C@@H](Cc1c[nH]cn1)C(=O)N[C@@H](CC1CCCCC1)[C@@H](O)[C@@H](O)CN1CCOCC1 (stereo partly drawn) [Example 35, (2S,3R,4S)-4-{L-N^α -[(2S)-3-isopropylsulfinyl-2-(1-naphthylmethyl)propionyl]histidyl}amino-5-cyclohexyl-1-morpholino-2,3-pentanediol] was tested. Which IC50 did it give?
The IC50 was 5.9 nM.

How did the IC50 turn out when CCCC[C@H](NC(=O)[C@H](Cc1cccc2ccccc12)CS(=O)(=O)C(C)(C)C)C(=O)N[C@@H](CC1CCCCC1)[C@@H](O)[C@@H](O)CN1CCOCC1 [Example 38, (2S,3R,4S)-4-{L-N-[(2S)-3-tert-butylsulfonyl-2-(1-naphthylmethyl)propionyl]norleucyl}amino-5-cyclohexyl-1-morpholino-2,3-pentanediol] was run?
Its IC50 is 5.9 nM.

CCCC[C@H](NC(=O)[C@@H](CSc1ncccn1)Cc1cccc2ccccc12)C(=O)N[C@@H](CC1CCCCC1)[C@@H](O)[C@@H](O)CN1CCOCC1 [Example 40, (2S,3R,4S)-4-{L-N-[(2S)-2-(1-naphthylmethyl)-3-(pyrimidin-2-yl)thiopropionyl]norleucyl}amino-5-cyclohexyl-1-morpholino-2,3-pentanediol] was tested. Which IC50 did it give?
The IC50 was 5.3 nM.

Which IC50 does the source give for CCCC[C@H](NC(=O)[C@H](Cc1cccc2ccccc12)CS(=O)(=O)c1ncccn1)C(=O)N[C@@H](CC1CCCCC1)[C@@H](O)[C@@H](O)CN1CCOCC1 [Example 41, (2S,3R,4S)-4-{L-N-[(2S)-2-(1-naphthylmethyl)-3-(pyrimidin-2-yl)sulfonylpropionyl]norleucyl}amino-5-cyclohexyl-1-morpholino-2,3-pentanediol] here?
Its IC50 is 1.7 nM.
